The record followed here is PMC5673977, “Transport Deficiency Is the Molecular Basis of Candida albicans Resistance to Antifungal Oligopeptides” (Frontiers in Microbiology, 2017).

Where a SMILES comes first, the peptide text is derived from it. [ ]: non-standard residue; d: D form. Nva = CCC[C@H](N)C(=O)O Where only a bound is given, the exact number is not on record here.

The subject of series [1] is peptidases present in cytoplasmic extracts obtained from NF1, NF2, NF3, LNF1, LNF2, LNF3, and SC 5314 cells. Nature of the series: Peptide cleavage rate in cell-free extract (Cd-ninhydrin). The following applies: pH 6.5, 30°C. The class given is in vitro ADME, Candida albicans. The method, then:
Yeast cells from the overnight culture in YNB-SG were harvested by centrifugation and washed with cold 25 mM potassium phosphate buffer (pH 6.5). Cells were then suspended in a minimal amount of the buffer and disrupted with the French press. The resulting suspension was centrifuged (35,000 ×g, 4°C, 45 min), and the supernatant was used as a cell-free extract for the determination of peptide cleavage rates.
The incubation mixtures, consisting of 10 mL of a 200 mM peptide solution in 50 mM potassium phosphate buffer (pH 6.5) and 2 mL of an appropriately diluted crude extract (final protein concentration, 0.1–0.5 mg mL^-1), were incubated at 30°C. At 5 min intervals, 2 mL aliquots were withdrawn and heated at 100°C for 3 min. The resulting suspensions were centrifuged to remove the protein precipitates and the concentration of free amino acids in the supernatant was determined by the Cd-ninhydrin procedure ([Doi et al., 1981]).

Series [2] deals with C. albicans isolates NF1-3 and LNF1-3. Nature of the series: Initial peptide uptake rate by isolates resistant to F2/F3. The class given is cell-based, Candida albicans. As to conditions: all six isolates NF1-3, LNF1-3; Figure 4. The method, then:
(§1) Yeast cells grown exponentially in the YNB-SG medium were harvested by centrifugation (3000 ×g, 5 min), washed with 50 mM potassium phosphate buffer (pH 5.0 or 6.5), and suspended in the same buffer containing 1% glucose, to a final cell density corresponding to A660 ≅ 1.0. The cell suspension was incubated at 30°C. After 10 min, an oligopeptide solution was added, to give a final concentration of 100 μM. At that moment and at 5 min intervals thereafter, 2 mL samples of the cell suspension were withdrawn, immediately filtered through the Whatman GF/A filters and the filtrates were used to determine the residual peptide concentration. Then, the 1 mL portions of the filtrates were taken and combined with 1.25 mL aliquots of a solution containing 4% Na2B4O7 × 10 H2O and 0.8 mg mL^-1 of 2,4,6-trinitrobenzenesulfonate. The reaction was carried out at 37°C for 30 min. The A420 values were measured and the peptide concentration was read from the appropriate standard curve. Data were plotted as nanomoles of an oligopeptide, taken up by 1 mg (dry weight) of cells versus time. The initial uptake velocities were determined from the slopes of the linear part of the curves, in the 0- to 10-min region.
It is therefore clear that the diminished sensitivity of all six isolates to F2 and F3 was due to the reduced uptake, most likely by permease(s) of the PTR system.

Series [3] deals with C. albicans opt5Δ. Nature of the series: Initial peptide uptake rate. The class given is cell-based, Candida albicans. As to conditions: 50 mM potassium phosphate buffer (pH 5.0 or 6.5) + 1% glucose, 30°C, 100 μM peptide, TNBS A420, slope 0- to 10-min. The method, then:
as §1

In series [4] the test system is C. albicans ptr2Δ ptr22Δ. Nature of the series: Initial peptide uptake rate. The following applies: 50 mM potassium phosphate buffer (pH 5.0 or 6.5) + 1% glucose, 30°C, 100 μM peptide, TNBS A420, slope 0- to 10-min. The class given is cell-based, Candida albicans. On the procedure:
as §1

The subject of series [5] is C. albicans opt1Δ. Nature of the series: Initial peptide uptake rate. The class given is cell-based, Candida albicans. The following applies: 50 mM potassium phosphate buffer (pH 5.0 or 6.5) + 1% glucose, 30°C, 100 μM peptide, TNBS A420, slope 0- to 10-min. On the procedure:
as §1

Series [6] relates to C. albicans opt4Δ. The series is described as follows: Initial peptide uptake rate. The series is classed as cell-based, Candida albicans. As to conditions: 50 mM potassium phosphate buffer (pH 5.0 or 6.5) + 1% glucose, 30°C, 100 μM peptide, TNBS A420, slope 0- to 10-min. On the procedure: as §1
Series [7] concerns C. albicans opt1–opt5Δ ptr2Δ ptr22Δ. Nature of the series: Initial peptide uptake rate. The series is classed as cell-based, Candida albicans. The following applies: 50 mM potassium phosphate buffer (pH 5.0 or 6.5) + 1% glucose, 30°C, 100 μM peptide, TNBS A420, slope 0- to 10-min. On the procedure:
as §1

The test system of series [8] is C. albicans SC5314. Nature of the series: Initial peptide uptake rate. As to conditions: SC 5314; cells grown in YNB-SG; 50 mM potassium phosphate buffer (pH 5.0 or 6.5) + 1% glucose, 30°C, 100 μM peptide, residual peptide by TNBS A420, slope 0- to 10-min. The series is classed as cell-based, Candida albicans. The method, then:
as §1

Series [9] relates to C. albicans opt2Δ opt3Δ. The series is described as follows: Initial peptide uptake rate. The class given is cell-based, Candida albicans. As to conditions: 50 mM potassium phosphate buffer (pH 5.0 or 6.5) + 1% glucose, 30°C, 100 μM peptide, TNBS A420, slope 0- to 10-min. The method, then:
as §1

The test system of series [10] is C. albicans opt1–opt5Δ. The series is described as follows: Initial peptide uptake rate. The following applies: 50 mM potassium phosphate buffer (pH 5.0 or 6.5) + 1% glucose, 30°C, 100 μM peptide, TNBS A420, slope 0- to 10-min. The class given is cell-based, Candida albicans. The method, then:
as §1

Consider `CCC[C@H](N)C(=O)N[C@@H](Cc1ccccc1)C(=O)N[C@@H](CCSC)C(=O)N[C@@H](CC(=O)O)C(=O)N1CCC[C@H]1C(=O)O` [Peptide F2, Nva-FMDP] (H-[Nva]FMDP-OH), for which the “Velocity of proteolytic cleavage relative to F6, F7, and F11” value in series [1] is “two to three times higher”. Further, the “Initial uptake rate relative to wild type SC5314 cells” value in series [2] is recorded as “remarkably lower”. In addition, the “Uptake rate ± SD” value was 4.78 ± 0.11 nmol min^-1 (mg dry weight)^-1 in series [3]; <0.1 nmol min^-1 (mg dry weight)^-1 in series [4]; 4.75 ± 0.09 nmol min^-1 (mg dry weight)^-1 in series [5]; 4.86 ± 0.14 nmol min^-1 (mg dry weight)^-1 in series [6]; <0.1 nmol min^-1 (mg dry weight)^-1 in series [7]; 4.83 ± 0.11 nmol min^-1 (mg dry weight)^-1 in series [8]. In addition, the “Uptake rate ± SD” value in series [9] was 4.80 ± 0.15 nmol min^-1 (mg dry weight)^-1; in series [10] it was 4.05 ± 0.18 nmol min^-1 (mg dry weight)^-1.
As to `CCC[C@H](NC(=O)[C@@H](N)CCCCN)C(=O)N[C@@H](Cc1ccccc1)C(=O)N[C@@H](CCSC)C(=O)N[C@@H](CC(=O)O)C(=O)N1CCC[C@H]1C(=O)O` [Peptide F3, Lys-Nva-FMDP] (H-K[Nva]FMDP-OH), the “Velocity of proteolytic cleavage relative to F6, F7, and F11” value in series [1] was “two to three times higher”. In [2], the “Initial uptake rate relative to wild type SC5314 cells” value is recorded as “lower”. Moreover, the “Uptake rate ± SD” value in series [3] is reported as 4.19 ± 0.16 nmol min^-1 (mg dry weight)^-1; in series [4], 0.11 ± 0.04 nmol min^-1 (mg dry weight)^-1; in series [5] it was 4.08 ± 0.14 nmol min^-1 (mg dry weight)^-1; in series [6], 4.12 ± 0.15 nmol min^-1 (mg dry weight)^-1; in series [7], <0.1 nmol min^-1 (mg dry weight)^-1; in series [8] it was 4.32 ± 0.14 nmol min^-1 (mg dry weight)^-1. Moreover, the results for the “Uptake rate ± SD” value in series [9] and in series [10] were 3.23 ± 0.19 nmol min^-1 (mg dry weight)^-1 and 2.98 ± 0.18 nmol min^-1 (mg dry weight)^-1, respectively.
With “Ala-Ala-Ala-Ala [(Ala)4, model alanyl oligopeptide, reference compound]”, the “Initial uptake rate relative to wild type SC5314 cells” value in series [2] is “nearly the same or even somewhat higher”. The “Uptake rate ± SD” value is listed as 1.55 ± 0.11 nmol min^-1 (mg dry weight)^-1 in series [3]; 2.72 ± 0.16 nmol min^-1 (mg dry weight)^-1 in series [4]; 0.79 ± 0.09 nmol min^-1 (mg dry weight)^-1 in series [5]; 1.72 ± 0.11 nmol min^-1 (mg dry weight)^-1 in series [6]; <0.1 nmol min^-1 (mg dry weight)^-1 in [7]; 3.75 ± 0.19 nmol min^-1 (mg dry weight)^-1 in [8]. The “Uptake rate ± SD” value in [9] was 1.93 ± 0.15 nmol min^-1 (mg dry weight)^-1; in series [10], 0.12 ± 0.02 nmol min^-1 (mg dry weight)^-1.
